Earlier results, collected in patent US9035093B2 (Colgate-Palmolive Company, priority 2009, dated 2015).

Settings: room temperature, natural partial pressure (3.5×10^−4 atmosphere)

O=C=O [Carbon dioxide]
maximum concentration of carbon dioxide in water: 12 µM
